According to patent US20070036839A1, “Phosphorylated glucomannane polysaccharides containing 1-6 and 1-2 linkages increase weight gain in poultry” (priority 2005, published 2007):

Assay: Weekly hematology (CBC with differential); on Red Blood Cells HCT: test concentration or dose not given here; on White Blood Cells BASO: test concentration or dose not given here; on White Blood Cells EOS: test concentration or dose not given here; on White Blood Cells LYMP + MONO: test concentration or dose not given here; on White Blood Cells NEUT: test concentration or dose not given here; on White Blood Cells WBC: test concentration or dose not given here
Format: in vivo, Male Ross x Ross broiler chickens

Others Het/Poly (Day 3, dose group 1): 19.75% | Red Blood Cells HCT (Day 3, dose group 1): 30.67% | White Blood Cells BASO (Day 3, dose group 1): 127.50 X/uL | White Blood Cells EOS (Day 3, dose group 1): 0.00 X/uL | White Blood Cells LYMP + MONO (Day 3, dose group 1): 2590.00 X/uL | White Blood Cells NEUT (Day 3, dose group 1): 782.50 X/uL | White Blood Cells WBC (Day 3, dose group 1): 3000 µL⁻¹ | Others Het/Poly (Day 3, dose group 3): 31.67% | Red Blood Cells HCT (Day 3, dose group 3): 27.80% | White Blood Cells BASO (Day 3, dose group 3): 45.00 X/uL | White Blood Cells EOS (Day 3, dose group 3): 0.00 X/uL | White Blood Cells LYMP + MONO (Day 3, dose group 3): 2060.00 X/uL | White Blood Cells NEUT (Day 3, dose group 3): 1061.67 X/uL | White Blood Cells WBC (Day 3, dose group 3): 3170 µL⁻¹ | Others Het/Poly (Day 3, dose group 20): 27.00% | Red Blood Cells HCT (Day 3, dose group 20): 27.00% | White Blood Cells BASO (Day 3, dose group 20): 16.00 X/uL | White Blood Cells EOS (Day 3, dose group 20): 16.00 X/uL | White Blood Cells LYMP + MONO (Day 3, dose group 20): 2950.00 X/uL | White Blood Cells NEUT (Day 3, dose group 20): 818.00 X/uL | White Blood Cells WBC (Day 3, dose group 20): 3800 µL⁻¹ | Others Het/Poly (Day 7, dose group 1): 45.00% | White Blood Cells BASO (Day 7, dose group 1): 0.00 X/uL | White Blood Cells EOS (Day 7, dose group 1): 0.00 X/uL | White Blood Cells LYMP + MONO (Day 7, dose group 1): 5500.00 X/uL | White Blood Cells NEUT (Day 7, dose group 1): 4500.00 X/uL | White Blood Cells WBC (Day 7, dose group 1): 10000 µL⁻¹ | Others Het/Poly (Day 7, dose group 3): 19.67% | White Blood Cells BASO (Day 7, dose group 3): 146.67 X/uL | White Blood Cells EOS (Day 7, dose group 3): 0.00 X/uL | White Blood Cells LYMP + MONO (Day 7, dose group 3): 5273.33 X/uL | White Blood Cells NEUT (Day 7, dose group 3): 1246.67 X/uL | White Blood Cells WBC (Day 7, dose group 3): 6670 µL⁻¹ | Others Het/Poly (Day 7, dose group 20): 33.00% | White Blood Cells BASO (Day 7, dose group 20): 180.00 X/uL | White Blood Cells EOS (Day 7, dose group 20): 0.00 X/uL | White Blood Cells LYMP + MONO (Day 7, dose group 20): 4513.33 X/uL | White Blood Cells NEUT (Day 7, dose group 20): 2306.67 X/uL | White Blood Cells WBC (Day 7, dose group 20): 7000 µL⁻¹ | Others Het/Poly (Day 15, dose group 1): 37.00% | Red Blood Cells HCT (Day 15, dose group 1): 32.00% | White Blood Cells BASO (Day 15, dose group 1): 266.67 X/uL | White Blood Cells EOS (Day 15, dose group 1): 0.00 X/uL | White Blood Cells LYMP + MONO (Day 15, dose group 1): 6963.33 X/uL | White Blood Cells NEUT (Day 15, dose group 1): 4436.67 X/uL | White Blood Cells WBC (Day 15, dose group 1): 11670 µL⁻¹ | Others Het/Poly (Day 15, dose group 3): 30.67% | Red Blood Cells HCT (Day 15, dose group 3): 29.00% | White Blood Cells BASO (Day 15, dose group 3): 406.67 X/uL | White Blood Cells EOS (Day 15, dose group 3): 0.00 X/uL | White Blood Cells LYMP + MONO (Day 15, dose group 3): 8000.00 X/uL | White Blood Cells NEUT (Day 15, dose group 3): 3926.67 X/uL | White Blood Cells WBC (Day 15, dose group 3): 12330 µL⁻¹ | Others Het/Poly (Day 15, dose group 20): 31.67% | Red Blood Cells HCT (Day 15, dose group 20): 24.33% | White Blood Cells BASO (Day 15, dose group 20): 180.00 X/uL | White Blood Cells EOS (Day 15, dose group 20): 0.00 X/uL | White Blood Cells LYMP + MONO (Day 15, dose group 20): 5213.33 X/uL | White Blood Cells NEUT (Day 15, dose group 20): 2606.67 X/uL | White Blood Cells WBC (Day 15, dose group 20): 8000 µL⁻¹ | Others Het/Poly (Day 21, dose group 1): 28.33% | Red Blood Cells HCT (Day 21, dose group 1): 30.33% | White Blood Cells BASO (Day 21, dose group 1): 630.00 X/uL | White Blood Cells EOS (Day 21, dose group 1): 0.00 X/uL | White Blood Cells LYMP + MONO (Day 21, dose group 1): 7243.33 X/uL | White Blood Cells NEUT (Day 21, dose group 1): 3126.67 X/uL | White Blood Cells WBC (Day 21, dose group 1): 11000 µL⁻¹ | Others Het/Poly (Day 21, dose group 3): 29.67% | Red Blood Cells HCT (Day 21, dose group 3): 31.00% | White Blood Cells BASO (Day 21, dose group 3): 523.33 X/uL | White Blood Cells EOS (Day 21, dose group 3): 0.00 X/uL | White Blood Cells LYMP + MONO (Day 21, dose group 3): 6016.67 X/uL | White Blood Cells NEUT (Day 21, dose group 3): 2793.33 X/uL | White Blood Cells WBC (Day 21, dose group 3): 9330 µL⁻¹ | Others Het/Poly (Day 21, dose group 20): 35.50% | Red Blood Cells HCT (Day 21, dose group 20): 31.50% | White Blood Cells BASO (Day 21, dose group 20): 850.00 X/uL | White Blood Cells EOS (Day 21, dose group 20): 0.00 X/uL | White Blood Cells LYMP + MONO (Day 21, dose group 20): 6530.00 X/uL | White Blood Cells NEUT (Day 21, dose group 20): 4120.00 X/uL | White Blood Cells WBC (Day 21, dose group 20): 11500 µL⁻¹ | Others Het/Poly (Day 28, dose group 1): 56.33% | Red Blood Cells HCT (Day 28, dose group 1): 33.00% | White Blood Cells BASO (Day 28, dose group 1): 260.00 X/uL | White Blood Cells EOS (Day 28, dose group 1): 0.00 X/uL | White Blood Cells LYMP + MONO (Day 28, dose group 1): 2300.00 X/uL | White Blood Cells NEUT (Day 28, dose group 1): 4106.67 X/uL | White Blood Cells WBC (Day 28, dose group 1): 6670 µL⁻¹ | Others Het/Poly (Day 28, dose group 3): 59.00% | Red Blood Cells HCT (Day 28, dose group 3): 29.67% | White Blood Cells BASO (Day 28, dose group 3): 450.00 X/uL | White Blood Cells EOS (Day 28, dose group 3): 0.00 X/uL | White Blood Cells LYMP + MONO (Day 28, dose group 3): 3216.67 X/uL | White Blood Cells NEUT (Day 28, dose group 3): 5000.00 X/uL | White Blood Cells WBC (Day 28, dose group 3): 8670 µL⁻¹ | Others Het/Poly (Day 28, dose group 20): 44.00% | Red Blood Cells HCT (Day 28, dose group 20): 27.33% | White Blood Cells BASO (Day 28, dose group 20): 393.33 X/uL | White Blood Cells EOS (Day 28, dose group 20): 0.00 X/uL | White Blood Cells LYMP + MONO (Day 28, dose group 20): 3386.67 X/uL | White Blood Cells NEUT (Day 28, dose group 20): 3553.33 X/uL | White Blood Cells WBC (Day 28, dose group 20): 7330 µL⁻¹ | Others Het/Poly (Day 35, dose group 1): 33.00% | Red Blood Cells HCT (Day 35, dose group 1): 29.67% | White Blood Cells BASO (Day 35, dose group 1): 386.67 X/uL | White Blood Cells EOS (Day 35, dose group 1): 0.00 X/uL | White Blood Cells LYMP + MONO (Day 35, dose group 1): 4026.67 X/uL | White Blood Cells NEUT (Day 35, dose group 1): 2253.33 X/uL | White Blood Cells WBC (Day 35, dose group 1): 6670 µL⁻¹ | Others Het/Poly (Day 35, dose group 3): 31.00% | Red Blood Cells HCT (Day 35, dose group 3): 29.00% | White Blood Cells BASO (Day 35, dose group 3): 423.33 X/uL | White Blood Cells EOS (Day 35, dose group 3): 0.00 X/uL | White Blood Cells LYMP + MONO (Day 35, dose group 3): 4366.67 X/uL | White Blood Cells NEUT (Day 35, dose group 3): 2210.00 X/uL | White Blood Cells WBC (Day 35, dose group 3): 7000 µL⁻¹ | Others Het/Poly (Day 35, dose group 20): 34.67% | Red Blood Cells HCT (Day 35, dose group 20): 25.50% | White Blood Cells BASO (Day 35, dose group 20): 393.33 X/uL | White Blood Cells EOS (Day 35, dose group 20): 0.00 X/uL | White Blood Cells LYMP + MONO (Day 35, dose group 20): 4323.33 X/uL | White Blood Cells NEUT (Day 35, dose group 20): 2283.33 X/uL | White Blood Cells WBC (Day 35, dose group 20): 7000 µL⁻¹ | Others Het/Poly (Day 42, dose group 1): 31.33% | Red Blood Cells HCT (Day 42, dose group 1): 30.33% | White Blood Cells BASO (Day 42, dose group 1): 450.00 X/uL | White Blood Cells EOS (Day 42, dose group 1): 0.00 X/uL | White Blood Cells LYMP + MONO (Day 42, dose group 1): 6200.00 X/uL | White Blood Cells NEUT (Day 42, dose group 1): 3016.67 X/uL | White Blood Cells WBC (Day 42, dose group 1): 9670 µL⁻¹ | Others Het/Poly (Day 42, dose group 3): 34.67% | Red Blood Cells HCT (Day 42, dose group 3): 29.33% | White Blood Cells BASO (Day 42, dose group 3): 466.67 X/uL | White Blood Cells EOS (Day 42, dose group 3): 0.00 X/uL | White Blood Cells LYMP + MONO (Day 42, dose group 3): 5760.00 X/uL | White Blood Cells NEUT (Day 42, dose group 3): 3106.67 X/uL | White Blood Cells WBC (Day 42, dose group 3): 9330 µL⁻¹ | Others Het/Poly (Day 42, dose group 20): 35.00% | Red Blood Cells HCT (Day 42, dose group 20): 28.67% | White Blood Cells BASO (Day 42, dose group 20): 406.67 X/uL | White Blood Cells EOS (Day 42, dose group 20): 0.00 X/uL | White Blood Cells LYMP + MONO (Day 42, dose group 20): 4980.00 X/uL | White Blood Cells NEUT (Day 42, dose group 20): 3013.33 X/uL | White Blood Cells WBC (Day 42, dose group 20): 8670 µL⁻¹ | Others Het/Poly (Day 49, dose group 1): 27.33% | Red Blood Cells HCT (Day 49, dose group 1): 29.00% | White Blood Cells BASO (Day 49, dose group 1): 213.33 X/uL | White Blood Cells EOS (Day 49, dose group 1): 40.00 X/uL | White Blood Cells LYMP + MONO (Day 49, dose group 1): 5766.67 X/uL | White Blood Cells NEUT (Day 49, dose group 1): 2646.67 X/uL | White Blood Cells WBC (Day 49, dose group 1): 8670 µL⁻¹ | Others Het/Poly (Day 49, dose group 3): 34.33% | Red Blood Cells HCT (Day 49, dose group 3): 30.67% | White Blood Cells BASO (Day 49, dose group 3): 243.33 X/uL | White Blood Cells EOS (Day 49, dose group 3): 0.00 X/uL | White Blood Cells LYMP + MONO (Day 49, dose group 3): 5510.00 X/uL | White Blood Cells NEUT (Day 49, dose group 3): 2913.33 X/uL | White Blood Cells WBC (Day 49, dose group 3): 8670 µL⁻¹ | Others Het/Poly (Day 49, dose group 20): 43.33% | Red Blood Cells HCT (Day 49, dose group 20): 30.33% | White Blood Cells BASO (Day 49, dose group 20): 296.67 X/uL | White Blood Cells EOS (Day 49, dose group 20): 0.00 X/uL | White Blood Cells LYMP + MONO (Day 49, dose group 20): 4483.33 X/uL | White Blood Cells NEUT (Day 49, dose group 20): 3553.33 X/uL | White Blood Cells WBC (Day 49, dose group 20): 8330 µL⁻¹
Substance: Candida utilis phosphoglucomannan-soy bean proteins [CUPS]
